pEC50, pIC50: −log10 of the molar value.
Columns and labels:
[1] = target: T1, soluble guanylate cyclase (sGC) (Rattus norvegicus, UniProt P20595); experiment: Stimulation of sGC enzyme activity (PPi detection, luciferase); format: biochemical; conditions: for pEC50: sGC enzyme in vitro, read-out: EC50 (half-maximal effective concentration), activating action at the sGC enzyme in vitro
T1 construct: made in house
T1 sequence (P20595 1-619): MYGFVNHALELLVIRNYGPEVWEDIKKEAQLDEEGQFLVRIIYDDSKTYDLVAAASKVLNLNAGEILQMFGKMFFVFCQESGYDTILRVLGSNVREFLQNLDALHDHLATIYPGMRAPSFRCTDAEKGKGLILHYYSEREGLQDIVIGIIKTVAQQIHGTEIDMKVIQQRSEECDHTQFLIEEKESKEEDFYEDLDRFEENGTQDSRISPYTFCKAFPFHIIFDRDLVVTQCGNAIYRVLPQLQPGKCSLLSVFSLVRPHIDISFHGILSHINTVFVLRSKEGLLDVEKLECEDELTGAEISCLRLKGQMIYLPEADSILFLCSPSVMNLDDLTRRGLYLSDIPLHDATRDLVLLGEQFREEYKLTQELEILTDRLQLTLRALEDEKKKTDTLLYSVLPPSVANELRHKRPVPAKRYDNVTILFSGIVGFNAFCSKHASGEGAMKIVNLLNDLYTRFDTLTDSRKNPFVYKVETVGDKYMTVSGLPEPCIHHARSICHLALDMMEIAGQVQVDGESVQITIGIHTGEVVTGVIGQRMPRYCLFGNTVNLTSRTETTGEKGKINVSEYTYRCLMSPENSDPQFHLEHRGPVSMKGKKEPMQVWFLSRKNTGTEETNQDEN
T1 sequence (P19686 1-690 partner): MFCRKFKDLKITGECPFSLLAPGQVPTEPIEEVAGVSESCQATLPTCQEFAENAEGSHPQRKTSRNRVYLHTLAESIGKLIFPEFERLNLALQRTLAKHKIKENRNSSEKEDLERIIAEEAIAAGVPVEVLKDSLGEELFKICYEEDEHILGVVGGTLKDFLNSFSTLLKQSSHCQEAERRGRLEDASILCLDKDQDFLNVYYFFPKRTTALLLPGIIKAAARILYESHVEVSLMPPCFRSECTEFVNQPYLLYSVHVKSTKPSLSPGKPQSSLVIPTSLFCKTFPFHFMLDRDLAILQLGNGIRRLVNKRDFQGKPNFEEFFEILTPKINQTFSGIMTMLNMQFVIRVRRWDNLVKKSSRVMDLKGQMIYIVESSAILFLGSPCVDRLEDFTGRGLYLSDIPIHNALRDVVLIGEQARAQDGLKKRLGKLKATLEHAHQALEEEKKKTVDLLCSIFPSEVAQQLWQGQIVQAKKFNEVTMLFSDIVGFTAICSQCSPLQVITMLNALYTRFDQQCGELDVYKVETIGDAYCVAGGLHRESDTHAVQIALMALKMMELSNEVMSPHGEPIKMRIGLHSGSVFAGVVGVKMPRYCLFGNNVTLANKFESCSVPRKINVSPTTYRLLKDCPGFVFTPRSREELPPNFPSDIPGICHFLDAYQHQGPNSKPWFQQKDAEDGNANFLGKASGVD
Protocol: B-2. Stimulation of sGC Enzyme Activity
Soluble guanylate cyclase (sGC) converts on stimulation GTP into cGMP and pyrophosphate (PPi). PPi is detected with the aid of the assay described below. The signal produced in the assay increases as the reaction progresses and serves as a measure of the sGC enzyme activity under the given stimulation.
To carry out the assay, 29 μl of enzyme solution[0-10 nM soluble guanylate cyclase (prepared according to Honicka et al., J. Mol. Med. 77, 14-23 (1999)) in 50 mM TEA, 2 mM MgCl2, 0.1% BSA (fraction V), 0.005% Brij®, pH 7.5] are initially introduced into a microplate, and 1 μl of the substance to be tested (as a serially diluted solution in DMSO) is added. The mixture is incubated at room temperature for 10 min. Then 20 μl of detection mix [1.2 nM Firefly Luciferase (Photinus pyralis luciferase, Promega), 29 μM dehydroluciferin (prepared according to Bitler & McElroy, Arch. Biochem. Biophys. 72, 358 (1957)), 122 μM luciferin (Promega), 153 μM ATP (Sigma) and 0.4 mM DTT (Sigma) in 50 mM TEA, 2 mM MgCl2, 0.1% BSA (fraction V), 0.005% Brij®, pH 7.5] are added. The enzyme reaction is started by adding 20 μl of substrate solution[1.25 mM guanosine 5′-triphosphate (Sigma) in 50 mM TEA, 2 mM MgCl2, 0.1% BSA (fraction V), 0.005% Brij®, pH 7.5] and measured continuously in a luminometer. The extent of the stimulation by the substance to be tested can be determined relative to the signal of the unstimulated reaction.
The activation of haem-free guanylate cyclase is examined by addition of 25 μM of 1H-1,2,4-oxadiazolo[4,3-a]quinoxalin-1-one (ODQ) to the enzyme solution and subsequent incubation for 30 minutes and compared to the stimulation of the native enzyme.

[2] = tested on: rabbit arteria saphena rings; experiment: Vasorelaxant effect in vitro (arteria saphena rings, phenylephrin contraction); design: species or system Rabbits; conditions: concentration reducing phenylephrin-induced contraction by 50%
Protocol: B-3. Vasorelaxant Effect In Vitro
Rabbits are anaesthetized by intravenous injection of thiopental sodium […] (about 50 mg/kg) and exsanguinated. The arteria saphena is removed and divided into 3 mm wide rings. The rings are individually mounted on in each case one triangular pair of hooks, open at the end, made of 0.3 mm strong special wire (Remanium®). Under pretension, each ring is transferred into 5 ml organ baths containing carbogen-gassed Krebs-Henseleit solution of a temperature of 37° C. having the following composition: NaCl 119 mM; KCl 4.8 mM; CaCl2×2 H2O 1 mM; MgSO4×7 H2O 1.4 mM; KH2PO4 1.2 mM; NaHCO3 25 mM; glucose 10 mM; bovine serum albumin 0.001%. The contractile force is determined with Statham UC2 cells, amplified and digitalized using A/D transducers (DAS-1802 HC, Keithley Instruments Munich), and recorded in parallel on linear recorders. Contractions are induced by addition of phenylephrin.
After several (in general 4) control cycles, the substance to be investigated is added in each further passage in increasing dosage, and the height of the contraction achieved under the influence of the test substance is compared with the height of the contraction achieved in the last preliminary passage. From this, the concentration which is necessary in order to reduce the contraction achieved in the preliminary control by 50% (IC50) is calculated. The standard administration volume is 5 μl. The proportion of DMSO in the bath solution corresponds to 0.1%.

[3] = tested on: recombinant guanylate cyclase reporter cell line (CHO); experiment: Effect on a recombinant guanylate cyclase reporter cell line (sGC-activating activity in the CHO reporter cell); format: cell-based
Protocol: B-1. Effect on a Recombinant Guanylate Cyclase Reporter Cell Line
The cellular activity of the compounds according to the invention is determined using a recombinant guanylate cyclase reporter cell line, as described in F. Wunder et al., Anal. Biochem. 339, 104-112 (2005).

## CC(C)(C)c1ccc(COc2ccccc2CCN(CCCCC(=O)O)C2CCCc3cc(C(=O)O)ccc32)cc1 (racemic) [Example 1, rac-5-[(2-{2[(4-tert-Butylbenzyl)oxy]phenyl}ethyl)(4-carboxybutyl)amino]-5,6,7,8-tetrahydronaphthalene-2-carboxylic acid]
[1]
  MEC (minimum effective concentration), activating action at the sGC enzyme in vitro: 0.34 nM
  pEC50: 8.52
[2]; Oryctolagus cuniculus
  pIC50: 8.22
[3]
  MEC (minimum effective concentration), sGC-activating activity in the CHO reporter cell in vitro: 0.3 nM

## CC(C)(C)c1ccc(COc2ccccc2CCN(CCCCC(=O)O)C2CCCc3cc(C(=O)O)ccc32)cc1 (single isomer, unassigned; enantiomer 1) [Example 2, 5-[(2-{2-[(4-tert-Butylbenzyl)oxy]phenyl}ethyl)(4-carboxybutyl)amino]-5,6,7,8-tetrahydronaphthalene-2-carboxylic acid (enantiomer 1)]
[1]
  MEC (minimum effective concentration), activating action at the sGC enzyme in vitro: 0.11 nM
  pEC50: 8.60
[2]
  pIC50: 8.42
[3]
  MEC (minimum effective concentration), sGC-activating activity in the CHO reporter cell in vitro: 0.2 nM

## CC(C)(C)c1ccc(COc2ccccc2CCN(CCCCC(=O)O)C2CCCc3cc(C(=O)O)ccc32)cc1 (single isomer, unassigned; enantiomer 2) [Example 3, 5-[(2-{2-[(4-tert-Butylbenzyl)oxy]phenyl}ethyl)(4-carboxybutyl)amino]-5,6,7,8-tetrahydronaphthalene-2-carboxylic acid (enantiomer 2)]
[1]
  MEC (minimum effective concentration), activating action at the sGC enzyme in vitro: 5 nM
  pEC50: 7.37
[2]
  pIC50: 7.24
[3]
  MEC (minimum effective concentration), sGC-activating activity in the CHO reporter cell in vitro: 0.65 nM

## CC(C)(C)c1ccc(COc2ccccc2CCN(CCCCC(=O)O)C2CCc3cc(C(=O)O)ccc32)cc1 (stereo not drawn) [Example 4]
[1]
  MEC (minimum effective concentration), activating action at the sGC enzyme in vitro: 0.21 nM
  pEC50: 8.35
[2]; Oryctolagus cuniculus
  pIC50: 7.51
[3]
  MEC (minimum effective concentration), sGC-activating activity in the CHO reporter cell in vitro: 3.0 nM

## O=C(O)CCCCN(CCc1ccccc1OCc1ccc(CCc2ccccc2)cc1)C1CCCc2cc(C(=O)O)ccc21 (stereo not drawn) [Example 8]
[1]
  MEC (minimum effective concentration), activating action at the sGC enzyme in vitro: 0.32 nM
  pEC50: 8.14
[3]
  MEC (minimum effective concentration), sGC-activating activity in the CHO reporter cell in vitro: 0.3 nM

## N#Cc1cccc(COc2ccccc2CCN(CCCCC(=O)O)C2CCCc3cc(C(=O)O)ccc32)c1 (stereo not drawn) [Example 10]
[1]
  MEC (minimum effective concentration), activating action at the sGC enzyme in vitro: 270 nM
[3]
  MEC (minimum effective concentration), sGC-activating activity in the CHO reporter cell in vitro: 1000 nM

## Cc1cc(COc2ccccc2CCN(CCCCC(=O)O)C2CCCc3cc(C(=O)O)ccc32)n(C)n1 (stereo not drawn) [Example 11]
[1]
  MEC (minimum effective concentration), activating action at the sGC enzyme in vitro: 610 nM

## CC1CCC(=O)N1CCCCOc1ccccc1CCN(CCCCC(=O)O)C1CCCc2cc(C(=O)O)ccc21 (stereo not drawn) [Example 13]
[1]
  MEC (minimum effective concentration), activating action at the sGC enzyme in vitro: 55 nM

## O=C(O)CCCCN(CCc1ccccc1OCCCCN1CCCC1=O)C1CCCc2cc(C(=O)O)ccc21 (stereo not drawn) [Example 16]
[1]
  MEC (minimum effective concentration), activating action at the sGC enzyme in vitro: 600 nM
